Reference: PubChem BioAssay AID179 (DTP/NCI, 2004)
The source made the active and inactive calls.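 Rule for the calls: active = compounds giving half or more protection of infected cells from virus-caused growth loss, again on retest; inactive = the rest.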

Tested on: CEM cells HIV-1 protection, formazan growth assay
Test: NCI AIDS Antiviral Assay
Conditions: for IC50: measured here: growth of uninfected CEM cells
How it was run: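 Protection of CEM cells against HIV-1 measured as cell growth via soluble formazan read-out, with five concentrations tested on both infected and uninfected cells; failure to protect may reflect toxicity.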

SMILES	EC50 [µM]	IC50 [µM]	outcome
O=c1ncc2ccc([N+](=O)[O-])cc2[nH]1	> 186	148	–
CC(C)CCCC(C)[C@H]1CCC2C3C/C(=C\C#N)[C@H]4CCCC[C@]4(C)C3CC[C@@]21C (stereo partly specified)	> 100	> 100	–
COC(=O)C(C(=O)Cc1ccccc1[N+](=O)[O-])C(=O)OC	> 251	102	–
Cc1ccc(Sc2cc([N+](=O)[O-])cc(Sc3ccc(C)cc3)c2Sc2ccc(C)cc2)cc1	> 3.72	> 3.72	–
Cc1ccc2c(c1)sc1nncn12	> 100	> 100	–
COC(=O)C1=C(C(=O)OC)SC2(S1)C(C(=O)OC)=C(C(=O)OC)Sc1c2ssc1=O	> 0.2	0.0575	–
NC1CCCC2CCC(N)C12 (stereo unspecified)	> 200	9.55	–
O=C1NC(=S)SC1N=Nc1ccc(S(=O)(=O)Nc2ncccn2)cc1 (stereo unspecified)	> 200	> 200	–
CC(C(N)C(=O)NC(C(=O)O)C1OC(c2c[nH]c(=O)[nH]c2=O)C(O)C1O)C(O)c1ccc(O)cn1 (stereo unspecified)	–	–	inactive
NCCn1cnc2nc(NC(=O)c3ccccc3)[nH]c(=O)c21	> 166	91.2	–
CCN(CC)c1ccc(N=C2C=CC(=C(C#N)C#N)c3ccccc32)c(C)c1	–	–	inactive
CCSC(=O)C1(C)Cc2ccccc2O1 (stereo unspecified)	–	–	inactive
NN1C(=O)C(CCO)S/C1=N/N=C1/SC(CCO)C(=O)N1N (stereo unspecified)	> 74.1	> 74.1	–
Cc1ccc(NP(=O)(Oc2ccccc2)N(CCCl)CCCl)cc1 (stereo unspecified)	> 35.5	15.8	–
CC1(C)CN(CCC#N)C(c2ccc([N+](=O)[O-])cc2)O1 (stereo unspecified)	> 200	102	–
C/C=C/C=N/N(C(=O)c1cc([N+](=O)[O-])cc([N+](=O)[O-])c1)C1=NC(c2ccccc2)C(c2ccccc2)=NN1 (stereo unspecified)	> 36.3	> 36.3	–
O=[N+]([O-])c1cc(/C=N/NS(=O)(=O)c2ccc(F)cc2)c(O)c([N+](=O)[O-])c1	> 646	37.2	–
O=c1c(O)c(-c2ccccc2)oc2ccccc12	> 93.3	18.6	–
COc1ccc(-c2cc(-c3cc(C)cc(Br)c3O)no2)cc1	> 200	> 200	–
COC1=CC(=O)[C@]2(C)[C@H](C1=O)C(C)[C@H]2c1ccc(OC)cc1 (stereo partly specified)	> 87.1	> 87.1	–
CCOC(=O)CC1c2ccc(O)cc2OC(=O)C1c1ccc(N)cc1 (stereo unspecified)	> 200	> 200	–
Cc1cc(C)c(NC(=O)c2ccccc2)c(=O)o1	> 200	> 200	–
Cc1cccc(-n2c(C)nc3ccc(NC4OC(CO)C(O)C(O)C4O)cc3c2=O)c1 (stereo unspecified)	> 200	> 200	–

SMILES	EC50 [µM]	IC50 [µM]	outcome
Cn1cnc([N+](=O)[O-])c1SSc1c([N+](=O)[O-])ncn1C	> 200	> 200	–
O=C1C(NS(=O)(=O)c2ccccc2)=C(n2ccnc2)C(=O)c2ccccc21	> 200	91.2	–
N#CC12C(=O)NC(=O)C1(C#N)C2c1ccccc1 (stereo unspecified)	> 501	> 501	–
Cc1ccc(N2CC(O)CSC2=Nc2ccccc2)cc1 (stereo unspecified)	> 112	46.8	–
O=C1OC(=O)C23CSCC12C1C=CC3O1 (stereo unspecified)	> 417	> 417	–
Cc1c(O)c(OC2OC(CO)C(O)C(O)C2O)cc2c1CC[C@@H]1C2(C)C(=O)C[C@]2(C)[C@@H]([C@@](C)(O)C3CCC(C)(C)O3)[C@H](O)C[C@@]12C (stereo partly specified)	> 200	> 200	–
Cc1ccc(C)c(NC(=O)CCc2nc(=S)[nH][nH]2)c1	–	–	inactive
Cc1ccc(Nc2nc(N)nc(N)c2N=O)cc1C	> 200	> 200	–
Cc1cccc(NP2(Nc3cccc(C)c3)=NP(Nc3cccc(C)c3)(Nc3cccc(C)c3)=NP(Nc3cccc(C)c3)(Nc3cccc(C)c3)=NP(Nc3cccc(C)c3)(Nc3cccc(C)c3)=N2)c1	> 200	> 200	–
O=C(O)c1cccc2c(=O)c3ccccc3oc12	> 977	209	–
CN1CCC2CC1c1ccn(C)c1C2=O (stereo unspecified)	> 1230	> 1230	–
O=C1c2ccccc2-c2nnc3c(c21)-c1ccccc1C3	> 200	93.3	–
NC(=S)N/N=C\NN/C=N/NC(N)=S	> 200	102	–
Cn1c(=O)[nH]c2nncnc2c1=O	> 200	31.6	–
NC(CSSCC(NC(=O)c1ccccc1)C(=O)O)C(=O)O (stereo unspecified)	> 200	> 200	–
[O-]/C(=C\[P+](c1ccccc1)(c1ccccc1)c1ccccc1)c1ccccc1	> 200	32.4	–
ClC1c2ccccc2C2(c3ccccc3)OOC1(c1ccccc1)O2 (stereo unspecified)	–	–	inactive
Cc1ccnc(NC(=S)Nc2ccccc2Cl)c1	> 200	> 200	–
O=C(CP(=O)(c1ccccc1)c1ccccc1)c1cccc(C(=O)CP(=O)(c2ccccc2)c2ccccc2)c1	> 200	158	–
O=C1CSCC(=O)O1	> 1910	> 1910	–
CSc1nc(NC2OCC(O)C(O)C2O)cc(=O)[nH]1 (stereo unspecified)	–	–	inactive
Nc1ccc(S(=O)(=O)Nc2cnc3ccccc3n2)cc1	> 316	> 316	–
N.N.NC(CS)C(=O)[O-].NC(CS)C(=O)[O-].[Pt+4] (stereo unspecified)	> 3310	> 3310	–

SMILES	EC50 [µM]	IC50 [µM]	outcome
COC(=O)C(C(=O)C(=O)Nc1c(C)cccc1C(C)(C)C)c1nc2ccc(Cl)cc2[nH]c1=O (stereo unspecified)	> 55	> 55	–
CC1CCC2C(C(=O)O[C@H]3C4C=CO[C@@H](OC5OC(CO)C(O)C(O)C5O)C4[C@@]4(CO)O[C@@H]34)=CO[C@@H](OC3OC(CO)C(O)C(O)C3O)C12 (stereo partly specified)	> 200	> 200	–
CC(=O)CC(=O)/C=C/c1cccs1	> 257	178	–
CCOC(=O)/C(=C/c1ccc(C(F)(F)F)cc1)N(CC)CC	> 158	64.6	–
CCOC(=O)c1cc2cc3c4c(c2oc1=O)CCCN4CCC3	> 115	> 115	–
CCC1(N)C(=O)OCc2c1cc1n(c2=O)Cc2cc3ccccc3nc2-1 (stereo unspecified)	> 200	0.813	–
Cc1cccc2c1Oc1cc(Cl)ccc1C2NC(=O)CN(C)C (stereo unspecified)	> 77.6	72.4	–
C1CCC2(CC1)SSSC1(CCCCC1)SS2	> 100	> 100	–
NC(Cc1cnc[nH]1)C(=O)NC(Cc1ccc(O)c(O)c1)C(=O)NCC(=O)N/C=C\c1c[nH]c2cc(Br)ccc12 (stereo unspecified)	> 81.3	> 81.3	–
CCOC(=O)c1cnc2[nH]c(=O)c3ccccc3n2c1=O	–	–	inactive
CN1C2CCC1C(C(=O)O)C(O)C2 (stereo unspecified)	> 200	> 200	–
CC1(C)CC23C(=O)N(c4ccccc4)C(=Nc4ccccc4)NC2=CC(C#N)=C(C#N)C3O1 (stereo unspecified)	> 12	> 12	–
Clc1ccc(N=Nc2nc3ccccc3nc2N=Nc2ccc(Cl)cc2Cl)c(Cl)c1	> 0.794	> 0.794	–
Cc1cc(S(=O)(=O)Nc2n[nH]c(-c3ccc(Cl)cn3)n2)c(S)cc1Cl	> 148	123	–
Cc1c(N)nc(C2CC(=O)N2CC(N)C(N)=O)nc1C(=O)NC(C(=O)NC(C)C(O)C(C)C(=O)NC(C(=O)NCCc1nc(-c2nc(C(=O)NCCNCC(C)O)cs2)cs1)C(C)O)C(OC1OC(CO)C(O)C(O)C1OC1OC(CO)C(O)C(OC(N)=O)C1O)c1cnc[nH]1 (stereo unspecified)	–	–	inactive
COc1ccc(N(C(=O)Nc2ccc(Cl)c(Cl)c2)c2ccccc2)cc1	> 200	126	–
NC(CSS(=O)(=O)O)=NC1CC1	> 200	> 200	–
COc1ccc(/C=C2\NC(=S)NC2=O)cc1	> 200	151	–
CCOC(=O)/C(=C/c1ccc(OC)c(OC)c1)P(=O)(OCC)OCC	> 676	85.1	–
N#CC(N)c1ccc(OCCCCCCCCCCOc2ccc(C(N)C#N)cc2)cc1 (stereo unspecified)	> 200	115	–
O=S(=O)(CC1=NC2C=CC=CC2N=C1)NCc1ccccc1 (stereo unspecified)	–	–	inactive
CCOC(=O)C12CN(C34CC5CC(CC(C5)C3)C4)CC(C(=O)OCC)(C1=O)C(c1ccccc1)OC2c1ccccc1 (stereo unspecified)	> 30.9	13.5	–
CCOC(=O)C1(C)CC12CCCCC2 (stereo unspecified)	> 200	> 200	–

SMILES	EC50 [µM]	IC50 [µM]	outcome
COc1nc2c(nnn2C2OC(CO)C(O)C(O)C2O)c(=O)n1C (stereo unspecified)	–	–	inactive
CN(C)COC(=S)SC(=O)OCCCl	> 200	> 200	–
COC(=O)c1ccc(/C=C/C2=CC(=O)C=CC2=O)cc1	> 200	2.09	–
CC(=O)O[C@H]1CC[C@H]2[C@@H]3CCC(C(C)=O)[C@H](C(=O)O)[C@H]3CC[C@]12C (stereo partly specified)	> 200	> 200	–
CC1=C(N2CCOCC2)C(N2CCOCC2)=C(C)C(=O)C1=O	> 200	14.5	–
CCN(CC)CCSc1c(C(C)=O)c(=O)n(-c2ccccc2)c(=S)n1-c1ccccc1	> 200	1.15	–
NC(=O)N/N=C(\Cc1nc2ccc(Cl)cc2[nH]c1=O)C(=O)Nc1ccc(Cl)cc1Cl	> 77.6	> 77.6	–
O=c1[nH]cc(CCl)c(=O)[nH]1	> 200	> 200	–
COc1cccc(N2C(=O)CC(Sc3ccccc3N)C2=O)c1 (stereo unspecified)	> 200	> 200	–
COc1ccc(OC)c(NC(=O)C(=O)C(C(C)=O)c2nc3ccc(Cl)cc3[nH]c2=O)c1 (stereo unspecified)	> 81.3	> 81.3	–
CN(C)Cc1cc(C=O)cc(CN(C)C)c1O	> 200	> 200	–
O=C(c1ccccc1)C1S(=O)(=O)OCCOS1(=O)=O	> 5130	3090	–
CC(=O)N1N=C(c2ccccc2Nc2ccccc2C2=NN(C(C)=O)C(c3ccccc3)O2)OC1c1ccccc1 (stereo unspecified)	> 200	6.17	–
O=C1OCSc2ccccc21	> 1070	178	–
Cn1c(=O)c(C#N)c2n(c1=S)CCCCCCC2	> 200	112	–
CCOC(=O)COc1cccc2c1C(=O)CCO2	–	–	inactive
COC(OC)(c1ccccc1)C(I)I	–	–	inactive
Nc1ncnc2c1N=C(c1ccccc1)CC(c1ccccc1)N2 (stereo unspecified)	> 200	> 200	–
CC(C)(CN1CCCCC1)C(=O)/C=C/c1c(Cl)cccc1Cl	> 200	1.86	–
COc1ccc2c(c1)OC(c1ccccc1O)CC2=O (stereo unspecified)	> 186	30.2	–
